Assay results: patent US10472336B2, “Modulators of indoleamine 2,3-dioxygenase” (GlaxoSmithKline Intellectual Property (No.2) Limited, priority 2015, dated 2019)

Tests used:
[1] = biological target: T1, indoleamine 2, 3-dioxygenase (IDO1) (Homo sapiens, UniProt P14902); experiment: PBMC IDOi assay (kynurenine detection by mass spectrometry); type: cell-based; conditions: IFN-γ and LPS stimulated human PBMC, 2 days
Protocol: (§1) Compounds of the present invention were tested via high-throughput cellular assays utilizing detection of kynurenine via mass spectrometry and cytotoxicity as end-points. For the mass spectrometry and cytotoxicity assays, human peripheral blood mononuclear cells (PBMC) (PB003F; AllCells®, Alameda, Calif.) were stimulated with human interferon-γ (IFN-γ) (Sigma-Aldrich Corporation, St. Louis, Mo.) and lipopolysaccharide from Salmonella minnesota (LPS) (Invivogen, San Diego, Calif.) to induce the expression of indoleamine 2, 3-dioxygenase (IDO1). Compounds with IDO1 inhibitory properties decreased the amount of kynurenine produced by the cells via the tryptophan catabolic pathway. Cellular toxicity due to the effect of compound treatment was measured using CellTiter-Glo® reagent (CTG) (Promega Corporation, Madison, Wis.), which is based on luminescent detection of ATP, an indicator of metabolically active cells.
(§2) In preparation for the assays, test compounds were serially diluted 3-fold in DMSO from a typical top concentration of 5 mM and plated at 0.5 μL in 384-well, polystyrene, clear bottom, tissue culture treated plates with lids (Greiner Bio-One, Kremsmünster, Austria) to generate 11-point dose response curves. Low control wells (0% kynurenine or 100% cytotoxicity) contained either 0.5 μL of DMSO in the presence of unstimulated (−IFN-γ/−LPS) PBMCs for the mass spectrometry assay or 0.5 μL of DMSO in the absence of cells for the cytotoxicity assay, and high control wells (100% kynurenine or 0% cytotoxicity) contained 0.5 μL of DMSO in the presence of stimulated (+IFN-γ/+LPS) PBMCs for both the mass spectrometry and cytotoxicity assays.
Frozen stocks of PBMCs were washed and recovered in RPMI 1640 medium (Thermo Fisher Scientific, Inc., Waltham, Mass.) supplemented with 10% v/v heat-inactivated fetal bovine serum (FBS) (Thermo Fisher Scientific, Inc., Waltham, Mass.), and 1× penicillin-streptomycin antibiotic solution (Thermo Fisher Scientific, Inc., Waltham, Mass.). The cells were diluted to 1,000,000 cells/mL in the supplemented RPMI 1640 medium. 50 μL of either the cell suspension, for the mass spectrometry assay, or medium alone, for the cytotoxicity assay, were added to the low control wells, on the previously prepared 384-well compound plates, resulting in 50,000 cells/well or 0 cells/well respectively. IFN-γ and LPS were added to the remaining cell suspension at final concentrations of 100 ng/ml and 50 ng/ml respectively, and 50 μL of the stimulated cells were added to all remaining wells on the 384-well compound plates. The plates, with lids, were then placed in a 37° C., 5% CO2 humidified incubator for 2 days.
(§3) Following incubation, the 384-well plates were removed from the incubator and allowed to equilibrate to room temperature for 30 minutes. For the cytotoxicity assay, CellTiter-Glo® was prepared according to the manufacturer's instructions, and 40 μL were added to each plate well. After a twenty minute incubation at room temperature, luminescence was read on an EnVision® Multilabel Reader (PerkinElmer Inc., Waltham, Mass.). For the mass spectrometry assay, 10 μL of supernatant from each well of the compound-treated plates were added to 40 μL of acetonitrile, containing 10 μM of an internal standard for normalization, in 384-well, polypropylene, V-bottom plates (Greiner Bio-One, Kremsmünster, Austria) to extract the organic analytes. Following centrifugation at 2000 rpm for 10 minutes, 10 μL from each well of the acetonitrile extraction plates were added to 90 μL of sterile, distilled H2O in 384-well, polypropylene, V-bottom plates for analysis of kynurenine and the internal standard on the RapidFire 300 (Agilent Technologies, Santa Clara, Calif.) and 4000 QTRAP MS (SCIEX, Framingham, Mass.). MS data were integrated using Agilent Technologies' RapidFire Integrator software, and data were normalized for analysis as a ratio of kynurenine to the internal standard. […]

[2] = biological target: T1, indoleamine 2, 3-dioxygenase (IDO1); experiment: HeLa IDOi assay (kynurenine detection by mass spectrometry); type: cell-based; parameters: human epithelial HeLa cells (CCL-2; host or cells: HeLa cells stimulated with human IFN-γ; conditions: IFN-γ stimulated human epithelial HeLa cells, 2 days
Protocol: as §1, with “epithelial HeLa” for “peripheral blood mononuclear”, “(CCL-2; ATCC®, Manassas, Va.)” for “(PBMC) (PB003F; AllCells®, Alameda, Calif.)”, “Mo.)” for “Mo.) and lipopolysaccharide from Salmonella minnesota (LPS) (Invivogen, San Diego, Calif.)”
as §2, with “(−IFN-γ) HeLa cells” for “(−IFN-γ/−LPS) PBMCs”, “(+IFN-γ) HeLa cells” for “(+IFN-γ/+LPS) PBMCs”
Frozen stocks of HeLa cells were washed and recovered in DMEM high glucose medium with HEPES (Thermo Fisher Scientific, Inc., Waltham, Mass.) supplemented with 10% v/v certified fetal bovine serum (FBS) (Thermo Fisher Scientific, Inc., Waltham, Mass.), and 1× penicillin-streptomycin antibiotic solution (Thermo Fisher Scientific, Inc., Waltham, Mass.). The cells were diluted to 100,000 cells/mL in the supplemented DMEM medium. 50 μL of either the cell suspension, for the mass spectrometry assay, or medium alone, for the cytotoxicity assay, were added to the low control wells, on the previously prepared 384-well compound plates, resulting in 5,000 cells/well or 0 cells/well respectively. IFN-γ was added to the remaining cell suspension at a final concentration of 10 nM, and 50 μL of the stimulated cells were added to all remaining wells on the 384-well compound plates. The plates, with lids, were then placed in a 37° C., 5% CO2 humidified incubator for 2 days.
as §3, with “instructions, and 10 μL were” for “instructions, and 40 μL were”

T1 sequence (P14902 whole entry): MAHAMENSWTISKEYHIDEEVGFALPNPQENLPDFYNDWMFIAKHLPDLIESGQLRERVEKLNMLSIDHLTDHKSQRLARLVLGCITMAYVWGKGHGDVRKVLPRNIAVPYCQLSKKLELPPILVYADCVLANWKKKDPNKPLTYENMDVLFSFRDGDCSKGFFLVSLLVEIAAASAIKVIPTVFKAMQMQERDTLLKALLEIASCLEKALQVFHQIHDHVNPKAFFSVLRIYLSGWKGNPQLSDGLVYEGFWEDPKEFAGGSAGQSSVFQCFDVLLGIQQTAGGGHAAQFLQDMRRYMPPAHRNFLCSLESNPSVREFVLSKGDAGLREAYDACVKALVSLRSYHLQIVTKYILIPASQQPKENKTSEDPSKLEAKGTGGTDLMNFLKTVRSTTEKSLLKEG

Structure (SMILES)	EC50 [1] [nM]	EC50 [2] [nM]
CC(C)CN(c1ccc(C(C)CC(=O)O)cc1NCc1cncs1)C1CCCCC1 (stereo not drawn) [Example 22, 3-(4-(cyclohexyl(isobutyl)amino)-3-((thiazol-5-ylmethyl)amino)phenyl)butanoic acid]	100	200
CC(C)CN(CC(C)C)c1ccc(C(C)CC(=O)O)cc1Nc1nc(Cl)ns1 (stereo not drawn) [Example 25, 3-(3-((3-chloro-1,2,4-thiadiazol-5-yl)amino)-4-(diisobutylamino)phenyl)butanoic acid]	25.1	31.6
CC(C)CN(c1ccc([C@@H](C)CC(=O)O)cc1Nc1nc(Cl)ns1)C1CCCCC1 [Example 39, (S)-3-(3-((3-chloro-1,2,4-thiadiazol-5-yl)amino)-4-(cyclohexyl(isobutyl)amino)phenyl)butanoic acid]	1.26	12.6
Cc1nnc(Nc2cc(C(C)CC(=O)O)ccc2N(CC(C)C)CC(C)C)s1 (stereo not drawn) [Example 28, 3-(4-(diisobutylamino)-3-((5-methyl-1,3,4-thiadiazol-2-yl)amino)phenyl)butanoic acid]	–	31.6
CC(C)CN(CC(C)C)c1ccc(C(C)CC(=O)O)cc1Nc1nc(C(F)(F)F)cs1 (stereo not drawn) [Example 44, 3-(4-(diisobutylamino)-3-((4-(trifluoromethyl)thiazol-2-yl)amino)phenyl)butanoic acid]	–	20
CC(C)CN(c1ccc(C(C)CC(=O)O)cc1Nc1nc(Cl)ns1)C1CCCCC1 (stereo not drawn) [Example 7, 3-(3-((3-chloro-1,2,4-thiadiazol-5-yl)amino)-4-(cyclohexyl(isobutyl)amino)phenyl)butanoic acid]	–	5.01
CC(C)CN(CC(C)C)c1ccc(C(C)CC(=O)O)cc1Nc1nc2ccccc2[nH]1 (stereo not drawn) [Example 2, 3-(3-((1H-benzo[d]imidazol-2-yl)amino)-4-(diisobutylamino)phenyl)butanoic acid]	–	3.98
CC(C)CN(CC(C)C)c1ccc(C(C)CC(=O)O)cc1Nc1nc(C2CC2)ns1 (stereo not drawn) [Example 30, 3-(3-((3-cyclopropyl-1,2,4-thiadiazol-5-yl)amino)-4-(diisobutylamino)phenyl)butanoic acid]	–	50.1

Now from value to compound:

EC50 [1] [nM]	EC50 [2] [nM]	Structure (SMILES)
3.16	10	CC(C)CN(CC(C)C)c1ccc([C@@H](C)CC(=O)O)cc1Nc1nc(C(F)(F)F)ns1 [Example 53, (S)-3-(4-(diisobutylamino)-3-((3-(trifluoromethyl)-1,2,4-thiadiazol-5-yl)amino)phenyl)butanoic acid]
31.6	63.1	CC(C)CN(CC(C)C)c1ccc(C(C)CC(=O)O)cc1Nc1cnc(C2CC2)s1 (stereo not drawn) [Example 61, 3-(3-((2-cyclopropylthiazol-5-yl)amino)-4-(diisobutylamino)phenyl)butanoic acid]
63.1	–	CC(C)CN(c1ccc([C@H](C)CC(=O)O)cc1NC1CCCCC1)C1CCCCC1 [Example 64, (R)-3-(4-(cyclohexyl(isobutyl)amino)-3-(cyclohexylamino)phenyl)butanoic acid]
2.51	3.98	CC(C)CN(c1ccc([C@@H](C)CC(=O)O)cc1Nc1ccnc(Cl)n1)C1CCCCC1 [Example 62, (S)-3-(3-((2-chloropyrimidin-4-yl)amino)-4-(cyclohexyl(isobutyl)amino)phenyl)butanoic acid]
15.8	–	CC(C)CN(c1ccc(C(C)CC(=O)O)cc1Nc1cccc(C(F)(F)F)c1)C1CCCCC1 (stereo not drawn) [Example 65, 3-(4-(cyclohexyl(isobutyl)amino)-3-((3-(trifluoromethyl)phenyl)amino)phenyl)butanoic acid]
0.794	–	CC(C)CN(c1ccc(C(C)CC(=O)O)cc1Nc1ccc(C#N)cc1)C1CCCCC1 (stereo not drawn) [Example 67, 3-(3-((4-cyanophenyl)amino)-4-(cyclohexyl(isobutyl)amino)phenyl)butanoic acid]
3.16	–	CC(C)CN(c1ccc(C(C)CC(=O)O)cc1Nc1ccccc1)C1CCCCC1 (stereo not drawn) [Example 68, 3-(4-(cyclohexyl(isobutyl)amino)-3-(phenylamino)phenyl)butanoic acid]
1.26	–	CC(C)CN(c1ccc(C(C)CC(=O)O)cc1Nc1ccc(C(F)(F)F)cc1)C1CCCCC1 (stereo not drawn) [Example 66, 3-(4-(cyclohexyl(isobutyl)amino)-3-((4-(trifluoromethyl)phenyl)amino)phenyl)butanoic acid]
–	316	CC(C)CN(c1ccc(C(C)CC(=O)O)cc1NC1=N[C@H](c2ccccc2)CO1)C1CCCCC1 (stereo partly drawn) [Example 72, 3-(4-(Cyclohexyl(isobutyl)amino)-3-(((R)-4-phenyl-4,5-dihydrooxazol-2-yl)amino)phenyl)butanoic Acid]
–	126	CC(C)CN(c1ccc(C(C)CC(=O)O)cc1NC1CCOCC1)C1CCCCC1 (stereo not drawn) [Example 70, 3-(4-(Cyclohexyl(isobutyl)amino)-3-((tetrahydro-2H-pyran-4-yl)amino)phenyl)butanoic Acid]
